Test results as given in PMC13210772, “Dual FLT3/MAPK14 Proteolysis-Targeting Chimera (PROTAC) Induces Potent Acute Myeloid Leukemia Cell Death” (Pharmaceuticals, 2026).

Tests used:
MV4-11 = system: MV4-11; parameters: method as in PMID 30427680, PMID 34959180, PMID 34694800, PMID 36332882, PMID 38655686; details: reported FLT3 PROTACs, Figure 1; cited from earlier work
MOLM-13 = system: MOLM-13; parameters: method as in PMID 30427680, PMID 34959180, PMID 34694800, PMID 36332882, PMID 38655686; details: reported FLT3 PROTACs, Figure 1; cited from earlier work
MOLM-14 = system: MOLM-14; parameters: method as in PMID 36518702; details: reported FLT3 PROTAC, Figure 1; cited from earlier work
MAPK14 [1] = molecular target: T1, MAPK14 (Homo sapiens, UniProt Q16539); experiment: MAPK14 degradation, immunoblot in leukemia cells; assay type: cell-based; parameters: endogenous in cells; host or cells: K562, RS4-11, MV4-11, MOLM-13 (A17); MV4-11 (A20); details: K562, RS4-11, MV4-11 and MOLM-13 cells; 50 nM MA191, 24 h
FLT3-ITD [2] = molecular target: T2, FLT3-ITD (Homo sapiens, UniProt P36888, INS600HVDFREYEYD); experiment: Phosphorylation of FLT3-ITD, immunoblot in MV4-11 cells; assay type: cell-based; parameters: We treated MV4-11 cells with the synthesized degraders of FLT3; endogenous in cells; host or cells: MV4-11
T2 sequence (P36888 with tags, fused parts or gaps INS600HVDFREYEYD): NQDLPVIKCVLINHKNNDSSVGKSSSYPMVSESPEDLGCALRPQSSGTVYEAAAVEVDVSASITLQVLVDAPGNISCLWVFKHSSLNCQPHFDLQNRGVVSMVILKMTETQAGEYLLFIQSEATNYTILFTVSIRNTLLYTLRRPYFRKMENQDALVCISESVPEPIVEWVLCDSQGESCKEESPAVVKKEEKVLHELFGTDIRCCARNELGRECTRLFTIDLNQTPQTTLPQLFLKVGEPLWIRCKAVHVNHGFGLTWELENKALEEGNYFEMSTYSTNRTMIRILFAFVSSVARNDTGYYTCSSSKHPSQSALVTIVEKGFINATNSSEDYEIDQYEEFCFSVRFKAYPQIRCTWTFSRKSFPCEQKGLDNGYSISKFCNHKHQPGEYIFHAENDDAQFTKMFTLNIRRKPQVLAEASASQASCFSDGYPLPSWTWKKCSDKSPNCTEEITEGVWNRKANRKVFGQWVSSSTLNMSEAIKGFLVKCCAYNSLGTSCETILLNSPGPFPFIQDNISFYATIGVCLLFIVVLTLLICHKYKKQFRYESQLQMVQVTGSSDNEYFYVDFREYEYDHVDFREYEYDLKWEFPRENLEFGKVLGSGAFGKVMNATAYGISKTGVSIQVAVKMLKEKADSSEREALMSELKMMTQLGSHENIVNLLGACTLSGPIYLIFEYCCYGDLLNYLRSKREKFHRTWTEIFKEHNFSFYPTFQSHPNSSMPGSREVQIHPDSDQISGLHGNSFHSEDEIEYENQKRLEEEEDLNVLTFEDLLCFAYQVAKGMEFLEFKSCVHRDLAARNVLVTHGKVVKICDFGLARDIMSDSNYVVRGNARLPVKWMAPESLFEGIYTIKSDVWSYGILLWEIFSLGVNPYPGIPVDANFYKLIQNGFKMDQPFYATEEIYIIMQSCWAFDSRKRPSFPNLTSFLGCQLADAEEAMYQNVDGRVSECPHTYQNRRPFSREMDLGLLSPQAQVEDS
Excerpt: We aimed to delineate if the FLT3 inhibitor part of MA191 acts as a MAPK14 inhibitor in MV4-11 cells. We used the phosphorylation of FLT3-ITD and the phosphorylation of MAPK14 as markers for their activation. […] This finding is consistent with the detection of MAPK14 in the kinase selectivity profiling approach (Figure 3; MAPK14 is termed p38α therein).
(§1) Figure 7 Targeting MAPK14 augments anti-leukemic effects of an inhibition of FLT3-ITD. (a) The graphs show the mRNA levels of MAPK14 in leukemia cells and normal blood cells. […] All immunoblots show data from at least two independent repetitions. (c) Model for how inhibition of various signaling pathways affects AML cells (red, cytoplasm, blue, nucleus).

MAPK14 [3] = molecular target: T1, MAPK14; experiment: Phosphorylation of MAPK14, immunoblot in MV4-11 cells; assay type: cell-based; parameters: endogenous in cells; host or cells: K562, RS4-11, MV4-11, MOLM-13 (A17); MV4-11 (A20)
FLT3-ITD [4] = experiment: KINOMEscan binding assay
Description: Binding to FLT3-ITD was determined using the KINOMEscan^TM assay (Eurofins DiscoverX Corporation, San Diego, CA, USA)
Kinase-tagged T7 phage strains were prepared in an E. coli host derived from the BL21 strain. E. coli were grown to log-phase and infected with T7 phage and incubated with shaking at 32 °C until lysis. The lysates were centrifuged and filtered to remove cell debris. The remaining kinases were produced in HEK-293 cells and subsequently tagged with DNA for qPCR detection. […] The liganded beads were blocked with excess biotin and washed with blocking buffer (SeaBlock (Pierce), 1% BSA, 0.05% Tween 20, 1 mM DTT) to remove unbound ligand and to reduce non-specific binding. […] The compounds were then diluted directly into the assays such that the final concentration of DMSO was 0.9%. All reactions performed in polypropylene 384-well plate. Each was a final volume of 0.02 mL. […] The kinase concentration in the eluates was measured by qPCR.

FLT3-ITD [5] = molecular target: T2, FLT3-ITD; experiment: FLT3-ITD degradation, immunoblot in MV4-11 cells; details: MV4-11 cells, 50 nM, 24 h
HL-60 = system: HL-60; parameters: method as in PMID 36332882; details: reported FLT3 PROTAC, Figure 1; cited from earlier work
CSNK1D = CSNK1D (Homo sapiens, UniProt P48730); experiment: NanoBRET CELLinib128
caspase-3 = experiment: Caspase-3 cleavage, immunoblot in MV4-11 cells; assay type: cell-based, human
Excerpt: The usefulness of a combined inhibition of FLT3-ITD and MAPK14 through depletion may also be effective against leukemia stem cells that require cytokines signaling through MAPK14 [48]. Further studies are necessary to test this idea.
as §1

T1 sequence (Q16539 2-360 limits assumed): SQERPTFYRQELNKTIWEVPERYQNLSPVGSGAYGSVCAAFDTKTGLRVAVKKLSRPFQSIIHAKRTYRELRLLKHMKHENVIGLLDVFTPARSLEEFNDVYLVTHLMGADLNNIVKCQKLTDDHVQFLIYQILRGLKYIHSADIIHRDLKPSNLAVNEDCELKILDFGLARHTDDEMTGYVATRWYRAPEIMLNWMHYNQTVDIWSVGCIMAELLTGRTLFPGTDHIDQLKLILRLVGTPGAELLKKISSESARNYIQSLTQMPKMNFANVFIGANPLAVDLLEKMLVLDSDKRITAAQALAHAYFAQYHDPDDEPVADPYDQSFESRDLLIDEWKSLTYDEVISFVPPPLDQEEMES
Chain of CSNK1D (P48730 whole entry): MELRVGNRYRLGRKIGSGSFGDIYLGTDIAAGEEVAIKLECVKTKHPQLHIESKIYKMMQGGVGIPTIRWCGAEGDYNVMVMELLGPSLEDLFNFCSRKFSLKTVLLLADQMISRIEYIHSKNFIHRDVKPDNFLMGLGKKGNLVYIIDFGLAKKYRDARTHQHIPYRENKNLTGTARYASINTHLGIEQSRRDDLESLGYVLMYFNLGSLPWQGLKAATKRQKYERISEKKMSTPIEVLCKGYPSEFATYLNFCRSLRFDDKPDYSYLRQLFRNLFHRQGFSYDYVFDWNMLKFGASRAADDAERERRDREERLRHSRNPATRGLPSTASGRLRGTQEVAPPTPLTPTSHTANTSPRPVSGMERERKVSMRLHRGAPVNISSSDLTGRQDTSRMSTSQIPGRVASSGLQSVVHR

For `Cc1c(NC(=O)CN2CCN(CC3CCN(c4ccc5c(c4)C(=O)N(C4CCC(=O)NC4=O)C5=O)CC3)CC2)c[nH]c1/C=C1\C(=O)Nc2ccc(F)cc21` (stereo not shown) [A20], the IC50 (MV4-11) is given as 39.9 ± 3.4 nM and the IC50 (MOLM-13) is given as 170 ± 3.4 nM.
For `CCc1nc(C(N)=O)c(Nc2ccc(N3CCC(N4CCN(CC5CCN(C(=O)CCOCCOCCNc6cccc7c6C(=O)N(C6CCC(=O)NC6=O)C7=O)CC5)CC4)CC3)c(OC)c2)nc1NC1CCOCC1` (stereo not shown) [CRBN(FLT3)-8], the IC50 (MV4-11) is listed as 0.9 nM and the IC50 (MOLM-14) is listed as 2.8 nM.
For `CCc1nc(C(N)=O)c(Nc2ccc(N3CCC(N4CCN(C(=O)COc5cccc6c5CN(C5CCC(=O)NC5=O)C6=O)CC4)CC3)c(OC)c2)nc1NC1CCOCC1` (stereo not shown) [LWY713], the IC50 (MV4-11) is listed as 1.5 nM.
In the case of `Cc1ncsc1-c1ccc([C@H](C)NC(=O)[C@H]2C[C@H](O)CN2C(=O)[C@@H](NC(=O)[C@H]2CC[C@H](C(=O)N3CCN(CCNC(=O)c4cc(Oc5ccc(NC(=O)Nc6cc(C(C)(C)C)on6)cc5)ccn4)CC3)CC2)C(C)(C)C)cc1` [MA225, 4-(4-(3-(5-(tert-Butyl)isoxazol-3-yl)ureido)phenoxy)-N-(2-(4-(trans-4-(((S)-1-((2R,4S)-4-hydroxy-2-(((S)-1-(4-(4-methylthiazol-5-yl)phenyl)ethyl)carbamoyl)pyrrolidin-1-yl)-3,3-dimethyl-1-oxobutan-2-yl)carbamoyl)cyclohexanecarbonyl)piperazin-1-yl)ethyl)picolinamide], the “MAPK14 protein level, immunoblot” value (MAPK14 [1]) is reported as “did not reduce the levels of FLT3-ITD and MAPK14”, the “phosphorylation of FLT3-ITD” value (FLT3-ITD [2]) is reported as “inhibited the phosphorylation of FLT3-ITD” and the “phosphorylated MAPK14 (p-MAPK14)” value (MAPK14 [3]) is reported as “weak inhibition of phosphorylated MAPK14”. The “% FLT3-ITD Binding at 1 µM” value (FLT3-ITD [4]) was 97 ± 2%, the “% FLT3-ITD Degradation at 50 nM” value (FLT3-ITD [5]) was “No effect” and the “FLT3-ITD degradation” value (FLT3-ITD [5]) was “did not reduce the levels of FLT3-ITD and MAPK14”.
For `Cc1ncsc1-c1ccc(CNC(=O)[C@@H]2C[C@@H](O)CN2C(=O)[C@@H](NC(=O)COCCOCCNC(=O)c2c(C)[nH]c(/C=C3\C(=O)Nc4ccc(F)cc43)c2C)C(C)(C)C)cc1` [PROTAC5], the IC50 (HL-60) is listed as 2900 ± 1500 nM.
In the case of `Cc1ncsc1-c1ccc(CNC(=O)[C@@H]2C[C@@H](O)CN2C(=O)[C@@H](NC(=O)CCOCCOCCOc2ccc3c(c2)sc2nc(-c4ccc(NC(=O)Nc5cc(C(C)(C)C)on5)cc4)cn23)C(C)(C)C)cc1` [Quizaritinib-based PROTAC], the IC50 (MV4-11) is listed as 0.6 ± 0.08 nM.
Compound `CN[C@@H]1C[C@H]2O[C@@](C)([C@@H]1OC)n1c3ccccc3c3c4c(c5c6ccccc6n2c5c31)C(=O)NC4` [Staurosporine] has an EC50 (CSNK1D) of 10400 nM.
For `CCc1nc(C(N)=O)c(Nc2ccc(N3CCN(CCC4CCN(CC(=O)N[C@H](C(=O)N5C[C@H](O)C[C@H]5C(=O)N[C@@H](C)c5ccc(-c6scnc6C)cc5)C(C)(C)C)CC4)CC3)c(OC)c2)nc1NC1CCOCC1` [Z29], the IC50 (MV4-11) is listed as 5.5 ± 0.2 nM and the IC50 (MOLM-13) is listed as 8 ± 0.2 nM.
For `CNC(=O)c1cc(Cl)ccn1` [compound 1], the IC50 (MV4-11) is given as 18.7 ± 2.1 nM and the IC50 (MOLM-13) is given as 10.1 ± 1 nM.
For `Nc1ccc(O)cc1` [compound 2], the IC50 (MV4-11) is given as 9.2 ± 1 nM and the IC50 (MOLM-13) is given as 9.5 ± 0.7 nM.
In the case of `Cc1ccc(-n2nc(C(C)(C)C)cc2NC(=O)Nc2ccc(OCCN3CCOCC3)c3ccccc23)cc1` [doramapimod, reference compound], the “phosphorylation of FLT3-ITD” value (FLT3-ITD [2]) is reported as “did not affect FLT3-ITD and its activity” and the caspase-3 cleavage (caspase-3) is reported as “did not induce caspase-3 cleavage”.
